Assay results published in patent US12077503B2, “Substituted cyclic amides and their use as herbicides” (FMC CORPORATION, priority 2015, dated 2024).

Assays:
Format in all cases: in vivo
[1] = test system: ducksalad (Heteranthera limosa); assay: Test B flooded paddy test; settings: Heteranthera limosa, 250 g ai/ha, Flood; 0 to 100 scale where 0 is no effect and 100 is complete control; read-out: Ducksalad plant response rating
How it was run: (§1)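 Evaluation by eye, against controls, occurred 13–15 d post-treatment in a greenhouse, using a 0 (no effect) to 100 (complete control) scale. Application was into the paddy water, 3 cm deep over the soil, on 2-leaf plants.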

[2] = test system: barnyardgrass (Echinochloa crus-galli); assay: Test B flooded paddy test; settings: Echinochloa crus-galli, 250 g ai/ha, Flood; 0 to 100 scale where 0 is no effect and 100 is complete control; read-out: Barnyardgrass plant response rating
How it was run: as §1

rice (Oryra sativa) = assay: Test B flooded paddy test; settings: Oryza sativa, 250 g ai/ha, Flood; 0 to 100 scale where 0 is no effect and 100 is complete control; read-out: Rice plant response rating
How it was run: as §1

[3] = test system: sedge, umbrella (small-flower umbrella sedge, Cyperus difformis); assay: Test B flooded paddy test; settings: Cyperus difformis, 250 g ai/ha, Flood; 0 to 100 scale where 0 is no effect and 100 is complete control; read-out: Sedge, Umbrella plant response rating
How it was run: as §1

[4] = test system: ryegrass, Italian (Italian ryegrass, Lolium multiflorum); assay: Test A postemergence; settings: Lolium multiflorum, post-emergence, 240 h
How it was run: (§2)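 Seeded soil received test chemicals as a preemergence directed spray, and seedlings at one to two leaves, 2–10 cm tall, received them postemergence, in a non-phytotoxic, surfactant-containing solvent mixture. Pots were held in a greenhouse for approximately 10 d, then rated for injury from 0, no effect, to 100, complete control.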

[5] = test system: blackgrass (Alopecurus myosuroides); assay: Test A postemergence; settings: Alopecurus myosuroides, post-emergence, 240 h
How it was run: as §2

[6] = test system: barnyardgrass (Echinochloa crus-galli); assay: Test A postemergence; settings: Echinochloa crus-galli, post-emergence, 240 h
How it was run: as §2

[7] = test system: Galium (catchweed bedstraw, Galium aparine); assay: Test A postemergence; settings: Galium, post-emergence, 240 h
How it was run: as §2

Kochia (Kochia scoparia) [8] = assay: Test A postemergence; settings: Bassia scoparia, post-emergence, 240 h
How it was run: as §2

[9] = test system: giant foxtail (Setaria faberii); assay: Test A postemergence; settings: Setaria faberi, post-emergence, 240 h
How it was run: as §2

[10] = test system: pigweed (Amaranthus retroflexus); assay: Test A postemergence; settings: Amaranthus retroflexus, post-emergence, 240 h
How it was run: as §2

[11] = test system: wheat (Triticum aestivum); assay: Test A postemergence; settings: Triticum aestivum, post-emergence, 240 h
How it was run: as §2

[12] = test system: ragweed (common ragweed, Ambrosia elatior); assay: Test A postemergence; settings: Ambrosia artemisiifolia, post-emergence, 240 h
How it was run: as §2

corn (Zea mays) = assay: Test A postemergence; settings: Zea mays, post-emergence, 240 h
How it was run: as §2

[13] = test system: ryegrass, Italian (Italian ryegrass, Lolium multiflorum); assay: Test A preemergence; settings: Lolium multiflorum, pre-emergence, 240 h, 0 to 100 scale where 0 is no effect and 100 is complete control, read-out: Ryegrass, Italian plant response rating
How it was run: as §2

[14] = test system: barnyardgrass (Echinochloa crus-galli); assay: Test A preemergence; settings: Echinochloa crus-galli, pre-emergence, 240 h, 0 to 100 scale where 0 is no effect and 100 is complete control, read-out: Barnyardgrass plant response rating
How it was run: as §2

Kochia (Kochia scoparia) [15] = assay: Test A preemergence; settings: Bassia scoparia, pre-emergence, 240 h, 0 to 100 scale where 0 is no effect and 100 is complete control, read-out: Kochia plant response rating
How it was run: as §2

[16] = test system: giant foxtail (Setaria faberii); assay: Test A preemergence; settings: Setaria faberi, pre-emergence, 240 h, 0 to 100 scale where 0 is no effect and 100 is complete control, read-out: Foxtail, Giant plant response rating
How it was run: as §2

[17] = test system: pigweed (Amaranthus retroflexus); assay: Test A preemergence; settings: Amaranthus retroflexus, pre-emergence, 240 h, 0 to 100 scale where 0 is no effect and 100 is complete control, read-out: Pigweed plant response rating
[18] = test system: ragweed (common ragweed, Ambrosia elatior); assay: Test A preemergence; settings: Ambrosia artemisiifolia, pre-emergence, 240 h, 0 to 100 scale where 0 is no effect and 100 is complete control, read-out: Ragweed plant response rating
How it was run: as §2

[19] = 125 g ai/ha, preemergence, approx. 10 d

`CSc1ccccc1NC(=O)[C@H]1C(=O)N(C)C[C@@H]1c1ccc(F)c(Oc2ccccc2)c1` [Compound 1142] was tested, and the pest or weed control at 250 g/ha [1] was 0%, the pest or weed control at 250 g/ha [2] was 0% and the pest or weed control at 250 g/ha (rice (Oryra sativa)) was 0%. For the same compound, the pest or weed control at 250 g/ha [3] was 0%, the pest or weed control at 125 g/ha ([4]; 125 g ai/ha, postemergence, visual injury vs untreated controls after approx. 10 d, 0 = no effect, 100 = complete control, read-out: Ryegrass, Italian plant response rating (0 to 100 scale)) was 0% and the pest or weed control at 31 g/ha ([4]; Postemergence, 31 g ai/ha, visual injury after approx. 10 d, 0 to 100 scale, 0 no effect, 100 complete control, read-out: Plant response rating, Ryegrass, Italian) was 0%. For the same compound, the pest or weed control at 125 g/ha ([5]; 125 g ai/ha, postemergence, visual injury on 0 to 100 scale (0 no effect, 100 complete control), approx. 10 d, read-out: Blackgrass plant response rating) was 0%, the pest or weed control at 31 g/ha ([5]; Postemergence, 31 g ai/ha, visual injury after approx. 10 d, 0 to 100 scale, 0 no effect, 100 complete control, read-out: Plant response rating, Blackgrass) was 0% and the pest or weed control at 125 g/ha ([6]; 125 g ai/ha, postemergence, visual injury on 0 to 100 scale (0 no effect, 100 complete control), approx. 10 d, read-out: Barnyardgrass plant response rating) was 30%. The pest or weed control at 31 g/ha ([6]; Postemergence, 31 g ai/ha, visual injury after approx. 10 d, 0 to 100 scale, 0 no effect, 100 complete control, read-out: Plant response rating, Barnyardgrass) was 0%, the pest or weed control at 125 g/ha ([7]; 125 g ai/ha, postemergence, visual injury on 0 to 100 scale (0 no effect, 100 complete control), approx. 10 d, read-out: Galium plant response rating) was 30% and the pest or weed control at 31 g/ha ([7]; Postemergence, 31 g ai/ha, visual injury after approx. 10 d, 0 to 100 scale, 0 no effect, 100 complete control, read-out: Plant response rating, Galium) was 0%. For the same compound, the pest or weed control at 125 g/ha (Kochia (Kochia scoparia) [8]; 125 g ai/ha, postemergence, visual injury on 0 to 100 scale (0 no effect, 100 complete control), approx. 10 d, read-out: Kochia plant response rating) was 0%, the pest or weed control at 31 g/ha (Kochia (Kochia scoparia) [8]; Postemergence, 31 g ai/ha, visual injury after approx. 10 d, 0 to 100 scale, 0 no effect, 100 complete control, read-out: Plant response rating, Kochia) was 0% and the pest or weed control at 125 g/ha ([9]; 125 g ai/ha, postemergence, visual injury on 0 to 100 scale (0 no effect, 100 complete control), approx. 10 d, read-out: Foxtail, Giant plant response rating) was 60%. It also gave a pest or weed control at 31 g/ha ([9]; Postemergence, 31 g ai/ha, visual injury after approx. 10 d, 0 to 100 scale, 0 no effect, 100 complete control, read-out: Plant response rating, Foxtail, Giant) of 0%, a pest or weed control at 125 g/ha ([10]; 125 g ai/ha, postemergence, visual injury vs untreated controls after approx. 10 d, 0 = no effect, 100 = complete control, read-out: Pigweed plant response rating (0 to 100 scale)) of 30% and a pest or weed control at 31 g/ha ([10]; Postemergence, 31 g ai/ha, visual injury after approx. 10 d, 0 to 100 scale, 0 no effect, 100 complete control, read-out: Plant response rating, Pigweed) of 0%. It also gave a plant injury at 125 g/ha ([11]; 125 g ai/ha, postemergence, visual injury vs untreated controls after approx. 10 d, 0 = no effect, 100 = complete control, read-out: Wheat plant response rating (0 to 100 scale)) of 0%, a plant injury at 31 g/ha ([11]; Postemergence, 31 g ai/ha, visual injury after approx. 10 d, 0 to 100 scale, 0 no effect, 100 complete control, read-out: Plant response rating, Wheat) of 0% and a pest or weed control at 125 g/ha ([12]; 125 g ai/ha, postemergence, visual injury vs untreated controls after approx. 10 d, 0 = no effect, 100 = complete control, read-out: Ragweed plant response rating (0 to 100 scale)) of 0%. The pest or weed control at 31 g/ha ([12]; Postemergence, 31 g ai/ha, visual injury after approx. 10 d, 0 to 100 scale, 0 no effect, 100 complete control, read-out: Plant response rating, Ragweed) was 0%, the plant injury at 125 g/ha (corn (Zea mays); 125 g ai/ha, postemergence, visual injury on 0 to 100 scale (0 no effect, 100 complete control), approx. 10 d, read-out: Corn plant response rating) was 0% and the Corn plant response rating (crop injury, 0 = no effect, 100 = complete kill) at 31 g/ha (corn (Zea mays); Postemergence, 31 g ai/ha, visual injury after approx. 10 d, 0 to 100 scale, 0 no effect, 100 complete control) was 0%. For the same compound, the pest or weed control at 31 g/ha ([13]; 31 g ai/ha, Preemergence) was 0%, the pest or weed control at 125 g/ha [13, 19] was 0% and the pest or weed control at 31 g/ha ([14]; 31 g ai/ha, Preemergence) was 0%. It also gave a pest or weed control at 125 g/ha [14, 19] of 30%, a pest or weed control at 31 g/ha (Kochia (Kochia scoparia) [15]; 31 g ai/ha, Preemergence) of 0% and a pest or weed control at 125 g/ha (Kochia (Kochia scoparia) [15]; [19]) of 0%. It also gave a pest or weed control at 31 g/ha ([16]; 31 g ai/ha, Preemergence) of 30%, a pest or weed control at 125 g/ha [16, 19] of 90% and a pest or weed control at 31 g/ha ([17]; 31 g ai/ha, Preemergence) of 0%. The pest or weed control at 125 g/ha [17, 19] was 60%, the pest or weed control at 31 g/ha ([18]; 31 g ai/ha, Preemergence) was 0% and the pest or weed control at 125 g/ha [18, 19] was 0%.
